Source: US20220235057A1, “CYCLIC FORMYL AND CYCLIC KETONE COMPOUNDS, PREPARATION METHOD THEREFOR, AND PHARMACEUTICAL USE” (priority 2019, published 2022)

Assays:
Assay type in all cases: cell-based
[1] = tested on: drug resistant strains of Acinetobacter baumannii; assay: anti-drug resistant strains of Acinetobacter baumannii (inhibition zone)
[2] = tested on: Usutu virus (USUV); assay: anti-Usutu virus activity (inhibition rate); conditions: for inhibition at 11 µM / inhibition at 33 µM: Usutu virus
[3] = tested on: Zika virus (ZIKV); assay: anti-Zika virus activity (inhibition rate); conditions: for inhibition at 11 µM / inhibition at 33 µM: Zika virus
[4] = resistant strain of Acinetobacter baumannii no. 16
[5] = resistant strain of Acinetobacter baumannii no. 17
[6] = resistant strain of Acinetobacter baumannii no. 18
[7] = resistant strain of Acinetobacter baumannii no. 19
[8] = resistant strain of Acinetobacter baumannii no. 20

Structure (SMILES)	inhibition zone, diameter [1, 4] [mm]	inhibition zone, diameter [1, 5] [mm]	inhibition zone, diameter [1, 6] [mm]	inhibition zone, diameter [1, 7] [mm]	inhibition zone, diameter [1, 8] [mm]	Anti-USUV activity (inhibition rate) ([2]; Drug concentration 11 μM)	Anti-USUV activity (inhibition rate) ([2]; Drug concentration 33 μM)	Anti-ZIKV activity (inhibition rate) ([3]; Drug concentration 11 μM)	Anti-ZIKV activity (inhibition rate) ([3]; Drug concentration 33 μM)	inhibition at 11 µM ([2]; Drug concentration 11 μM) [%]	inhibition at 33 µM ([2]; Drug concentration 33 μM) [%]	inhibition at 11 µM ([3]; Drug concentration 11 μM) [%]	inhibition at 33 µM ([3]; Drug concentration 33 μM) [%]
O=C1C2CCCCN2C(c2ccc(O)cc2)N1Nc1ccccc1 (single isomer, unassigned) [ZKD-4A]	58	40	66	68	62	–	–	–	–	–	–	–	–
O=C1C2CCCCN2C(c2ccc(O)cc2)N1Nc1ccccc1 (single isomer, unassigned) [ZKD-4B]	68	68	68	68	68	–	–	–	–	–	–	–	–
COc1ccc(CC2N(Nc3ccccc3)C(=O)C3CCCCN32)cc1O (single isomer, unassigned) [ZKD-12A]	65	68	68	58	68	–	–	–	–	–	–	–	–
COc1ccc(CC2N(Nc3ccccc3)C(=O)C3CCCCN32)cc1O (single isomer, unassigned) [ZKD-12B]	68	68	55	60	68	–	–	–	–	–	–	–	–
COc1ccc(CC2N(Nc3ccccc3)C(=O)C3CCCCN32)cc1OC (single isomer, unassigned) [ZKD-13A]	68	68	68	64	68	–	–	–	–	–	–	–	–
COc1ccc(CC2N(Nc3ccccc3)C(=O)C3CCCCN32)cc1OC (single isomer, unassigned) [ZKD-13B]	68	68	36	64	68	–	–	–	–	–	–	–	–
COc1cc(CC2N(Nc3ccccc3)C(=O)C3CCCCN32)ccc1O (single isomer, unassigned) [ZKD-14A]	68	68	45	64	68	–	–	–	–	–	–	–	–
COc1cc(CC2N(Nc3ccccc3)C(=O)C3CCCCN32)ccc1O (single isomer, unassigned) [ZKD-14B]	54	53	34	68	68	–	–	–	–	–	–	–	–
O=C1C2CCc3ccccc3N2C(c2ccc(O)cc2)N1Nc1ccccc1 (single isomer, unassigned) [ZXD-86B]	–	–	–	–	–	+++ (+++: Complete suppression)	+++ (+++: Complete suppression)	+ (+: Partial suppression)	+++ (+++: Complete suppression)	–	–	–	–
O=C(NNc1ccc(F)cc1)c1ccc2cc[nH]c2c1 [ZBM-24]	38	68	6	50	68	–	–	–	–	–	–	–	–
O=C(NNc1ccc(F)cc1)c1ncc[nH]1 [ZBM-28]	51	68	64	64	68	–	–	–	–	–	–	–	–
Cn1cnc(C(=O)NNc2ccc(F)cc2)c1 [ZBM-29]	51	68	48	68	68	–	–	–	–	–	–	–	–
Cn1cncc1C(=O)NNc1ccc(F)cc1 [ZBM-30]	45	68	45	68	68	–	–	–	–	–	–	–	–
O=C(NNc1ccc(F)cc1)c1cc2ccc(Cl)cc2[nH]1 [ZBM-36]	30	58	21	68	68	–	–	–	–	–	–	–	–
O=C(NN1C(=O)[C@@H]2Cc3ccccc3N2[C@H]1c1ccc([N+](=O)[O-])cc1)c1ccc([N+](=O)[O-])cc1 [ZDL-11]	–	–	–	–	–	–	–	–	–	< 0	0 to 100	< 0	< 0
O=C1[C@@H]2Cc3ccccc3N2[C@@H](c2ccc([N+](=O)[O-])cc2)N1Nc1ccccc1 [ZDL-19]	–	–	–	–	–	–	–	–	–	< 0	> 100	< 0	0 to 100
COc1cc([C@H]2N(Nc3ccccc3)C(=O)[C@@H]3Cc4ccccc4N32)ccc1O [ZDL-21]	–	–	–	–	–	–	–	–	–	< 0	< 0	< 0	0 to 100
O=C1[C@@H]2Cc3ccccc3N2[C@@H](c2ccc([N+](=O)[O-])cc2)N1NS(=O)(=O)c1ccc([N+](=O)[O-])cc1 [ZDL-38]	–	–	–	–	–	–	–	–	–	< 0	0 to 100	< 0	< 0
O=C1C2CCCCN2[C@H](c2ccco2)N1Nc1ccccc1 (some centres unmarked) [ZKD-5A]	68	68	68	68	68	–	–	–	–	–	–	–	–

Structure (SMILES)	inhibition zone, diameter [1, 4] [mm]	inhibition zone, diameter [1, 5] [mm]	inhibition zone, diameter [1, 6] [mm]	inhibition zone, diameter [1, 7] [mm]	inhibition zone, diameter [1, 8] [mm]	Anti-USUV activity (inhibition rate) ([2]; Drug concentration 11 μM)	Anti-USUV activity (inhibition rate) ([2]; Drug concentration 33 μM)	Anti-ZIKV activity (inhibition rate) ([3]; Drug concentration 11 μM)	Anti-ZIKV activity (inhibition rate) ([3]; Drug concentration 33 μM)	inhibition at 11 µM ([2]; Drug concentration 11 μM) [%]	inhibition at 33 µM ([2]; Drug concentration 33 μM) [%]	inhibition at 11 µM ([3]; Drug concentration 11 μM) [%]	inhibition at 33 µM ([3]; Drug concentration 33 μM) [%]
O=C1C2CCCCN2[C@@H](c2ccco2)N1Nc1ccccc1 (some centres unmarked) [ZKD-5B]	68	48	48	55	68	–	–	–	–	–	–	–	–
COc1ccc(C2N(Nc3ccccc3)C(=O)C3CCCCN32)cc1OC (centres unmarked) [ZKD-6A]	45	43	20	25	64	–	–	–	–	–	–	–	–
COc1ccc([C@H]2N(Nc3ccccc3)C(=O)C3CCCCN32)cc1OC (some centres unmarked) [ZKD-6B]	16	17	16	20	40	–	–	–	–	–	–	–	–
O=C1C2CCCCN2C(c2ccc(B(O)O)cc2)N1Nc1ccccc1 (centres unmarked) [ZKD-10A]	56	53	55	48	68	–	–	–	–	–	–	–	–
O=C1C2CCCCN2[C@@H](c2ccc(B(O)O)cc2)N1Nc1ccccc1 (some centres unmarked) [ZKD-10B]	39	48	45	46	54	–	–	–	–	–	–	–	–
CC1(C)OB(c2ccc([C@@H]3N(Nc4ccccc4)C(=O)C4CCCCN43)cc2)OC1(C)C (some centres unmarked) [ZKD-15A]	46	50	40	68	68	–	–	–	–	–	–	–	–
CC1(C)OB(c2ccc([C@H]3N(Nc4ccccc4)C(=O)C4CCCCN43)cc2)OC1(C)C (some centres unmarked) [ZKD-15B]	67	68	40	68	68	–	–	–	–	–	–	–	–
O=C(NNc1ccc(F)cc1)C1CCCCN1 (centres unmarked) [ZKD-17]	67	68	36	68	68	–	–	–	–	–	–	–	–
COc1cc([C@@H]2N(Nc3ccccc3)C(=O)C3CCCCN32)ccc1O (some centres unmarked) [ZKD-18A]	68	68	68	68	68	–	–	–	–	–	–	–	–
COc1cc(C2N(Nc3ccccc3)C(=O)C3CCCCN32)ccc1O (centres unmarked) [ZKD-18B]	68	68	68	68	68	–	–	–	–	–	–	–	–
COc1ccc([C@@H]2N(Nc3ccccc3)C(=O)C3CCCCN32)cc1O (some centres unmarked) [ZKD-19A]	68	68	68	68	68	–	–	–	–	–	–	–	–
COc1ccc(C2N(Nc3ccccc3)C(=O)C3CCCCN32)cc1O (centres unmarked) [ZKD-19B]	68	68	68	68	68	–	–	–	–	–	–	–	–
Cc1cnc2c(S(=O)(=O)N3CCCCC3C(=O)NNc3ccc(F)cc3)cccc2c1 (centres unmarked) [ZKD-21]	60	48	53	64	68	–	–	–	–	–	–	–	–
O=C(NNc1ccc([N+](=O)[O-])cc1)[C@@H]1Cc2ccccc2CN1 [ZSD-15]	44	40	68	68	40	–	–	–	–	–	–	–	–
O=C(NNc1ccc(F)cc1)[C@@H]1Cc2ccccc2CN1 [ZSD-54]	50	58	47	68	68	–	–	–	–	–	–	–	–
O=C1C2CCc3ccccc3N2C(c2ccc(CO)cc2)N1Nc1ccccc1 (centres unmarked) [ZXD-157B]	–	–	–	–	–	–	–	–	–	> 100	–	–	–
O=C(NNc1ccc(F)cc1)C1CCc2ccccc2N1 (centres unmarked) [ZXD-F]	65	68	68	68	68	–	–	–	–	–	–	–	–
O=C1C(c2ccccc2)C(c2ccc(O)cc2)N2CCC[C@@H]12 (some centres unmarked) [ZXP-10]	–	–	–	–	–	–	–	–	–	< 0	0 to 100	–	–
